# According to US11434242B2, “Dopamine-b-hydroxylase inhibitors” (BIAL-PORTELA & Cª, S.A., priority 2017, dated 2022):
# Marks after values point to notes of the source that are not given here.
# Target: T1, Dopamine beta hydroxylase (Homo sapiens, UniProt P09172)
# T1 construct: 125 μl of plasma; tissue Instituto Português do Sangue Transplantação; host or cells: human plasma from healthy donors
# T1 sequence (P09172 40-617 limits assumed): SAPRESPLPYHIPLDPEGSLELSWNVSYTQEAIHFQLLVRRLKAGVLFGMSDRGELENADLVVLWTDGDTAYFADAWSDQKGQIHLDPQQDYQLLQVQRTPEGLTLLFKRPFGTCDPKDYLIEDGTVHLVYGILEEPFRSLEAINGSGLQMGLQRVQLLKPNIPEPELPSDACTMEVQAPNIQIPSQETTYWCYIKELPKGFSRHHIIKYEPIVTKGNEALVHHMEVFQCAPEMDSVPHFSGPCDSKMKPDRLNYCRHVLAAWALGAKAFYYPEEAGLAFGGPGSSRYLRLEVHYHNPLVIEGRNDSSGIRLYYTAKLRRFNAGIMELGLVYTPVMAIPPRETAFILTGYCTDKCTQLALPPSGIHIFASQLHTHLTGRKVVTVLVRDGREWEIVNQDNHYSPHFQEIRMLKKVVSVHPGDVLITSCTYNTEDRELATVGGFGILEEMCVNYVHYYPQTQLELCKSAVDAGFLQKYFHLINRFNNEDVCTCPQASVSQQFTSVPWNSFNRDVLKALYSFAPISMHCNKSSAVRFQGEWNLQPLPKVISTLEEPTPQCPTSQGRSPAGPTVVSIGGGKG
# Assay: Dopamine beta hydroxylase activity in human plasma
# Format: biochemical
# Method in brief: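 Healthy-donor human plasma pre-incubated 10 min at 37° C with compound at final 10, 100 or 1000 nM in pH 5.0 acetate buffer with ascorbate, fumarate, pargyline, N-ethylmaleimide, catalase and copper sulfate. Tyramine substrate then added for 45 min; octopamine formed was isolated by SCX cartridge, periodate-converted and read at 330 nm; activity given as % control.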
SMILES,"Plasma (0.01 μM), activity in % of control (inhibitor 0.01 μM)","Plasma (0.1 μM), activity in % of control (inhibitor 0.1 μM)","Plasma (0.01 μM), activity in % of control, re-test (asterisked) (inhibitor 0.01 μM, re-tested under the same experimental conditions, asterisked data believed to be correct)","Plasma (0.1 μM), activity in % of control, re-test (asterisked) (inhibitor 0.1 μM, re-tested under the same experimental conditions, asterisked data believed to be correct)"
"Cn1c(CC(=O)N[C@H]2CC[C@H](O)CC2)c2n(c1=S)C[C@@]1(c3cc(Cl)ccc3F)C[C@@H]21 [Example 355, 2-((5aS,6aR)-5a-(5-chloro-2-fluorophenyl)-2-methyl-3-thioxo-2,3,5,5a,6,6a-hexahydrocyclopropa[3,4]pyrrolo[1,2-c]imidazol-1-yl)-N-((1r,4R)-4-hydroxycyclohexyl)acetamide]",56.4 % of control,14.0 % of control,,
"Cn1c(CC(=O)NC2CCCCC2)c2n(c1=S)C[C@H](c1c(F)ccc(Cl)c1F)C2 [Example 356, (S)-2-(6-(3-chloro-2,6-difluorophenyl)-2-methyl-3-thioxo-2,5,6,7-tetrahydro-3H-pyrrolo[1,2-c]imidazol-1-yl)-N-cyclohexylacetamide]",35.4 % of control,6.6 % of control,,
"Cn1c(CC(=O)NC2CC2)c2n(c1=S)C[C@@]1(c3cc(Br)ccc3F)C[C@@H]21 [Example 357, 2-((5aS,6aR)-5a-(5-bromo-2-fluorophenyl)-2-methyl-3-thioxo-2,3,5,5a,6,6a-hexahydrocyclopropa[3,4]pyrrolo[1,2-c]imidazol-1-yl)-N-cyclopropylacetamide]",62.1 % of control,15.1 % of control,,
"CN(C)C(=O)C1CCN(C(=O)Cc2c3n(c(=S)n2C)C[C@@H](c2c(F)ccc(F)c2F)C3)C1 (stereo partly drawn) [Example 358, N,N-dimethyl-1-(2-((R)-2-methyl-3-thioxo-6-(2,3,6-trifluorophenyl)-2,5,6,7-tetrahydro-3H-pyrrolo[1,2-c]imidazol-1-yl)acetyl)pyrrolidine-3-carboxamide]",90.1 % of control,24.9 % of control,,
"Cn1c(CCN[C@@H]2CCOC2)c2n(c1=S)C[C@@]1(c3cc(Br)ccc3F)C[C@@H]21 [Example 359, (5aS,6aR)-5a-(5-bromo-2-fluorophenyl)-2-methyl-1-(2-(((R)-tetrahydrofuran-3-yl)amino)ethyl)-5,5a,6,6a-tetrahydrocyclopropa[3,4]pyrrolo[1,2-c]imidazole-3(2H)-thione]",101.2 % of control,53.3 % of control,,
"O=C(Cc1[nH]c(=S)n2c1C[C@H](c1c(F)c(F)cc(F)c1F)C2)N[C@@H]1CCOC1 [Example 360, 2-((R)-6-(2,3,5,6-tetrafluorophenyl)-3-thioxo-2,5,6,7-tetrahydro-3H-pyrrolo[1,2-c]imidazol-1-yl)-N—((R)-tetrahydrofuran-3-yl)acetamide]",31.8 % of control,1.4 % of control,90.1* % of control,22.5* % of control
"O=C(O)Cc1[nH]c(=S)n2c1[C@@H]1C[C@]1(c1cc(Br)ccc1F)C2 [Example 361, 2-((5aS,6aR)-5a-(5-bromo-2-fluorophenyl)-3-thioxo-2,3,5,5a,6,6a-hexahydrocyclopropa[3,4]pyrrolo[1,2-c]imidazol-1-yl)acetic Acid]",60.0 % of control,10.4 % of control,,
"O=C(Cc1[nH]c(=S)n2c1C[C@@H](c1c(F)ccc(Cl)c1F)C2)N[C@@H]1CCOC1 [Example 362, 2-((S)-6-(3-chloro-2,6-difluorophenyl)-3-thioxo-2,5,6,7-tetrahydro-3H-pyrrolo[1,2-c]imidazol-1-yl)-N—((R)-tetrahydrofuran-3-yl)acetamide]",43.2 % of control,11.8 % of control,,
"O=C(Cc1[nH]c(=S)n2c1C[C@@H](c1c(F)ccc(Cl)c1F)C2)N1CCOCC1 [Example 363, (S)-2-(6-(3-chloro-2,6-difluorophenyl)-3-thioxo-2,5,6,7-tetrahydro-3H-pyrrolo[1,2-c]imidazol-1-yl)-1-morpholinoethan-1-one]",89.5 % of control,20.8 % of control,,
"CN(C(=O)Cc1[nH]c(=S)n2c1C[C@H](c1c(F)ccc(F)c1F)C2)C1CCOC1 (stereo partly drawn) [Example 364, N-methyl-N-(tetrahydrofuran-3-yl)-2-((R)-3-thioxo-6-(2,3,6-trifluorophenyl)-2,5,6,7-tetrahydro-3H-pyrrolo[1,2-c]imidazol-1-yl)acetamide]",97.0 % of control,54.7 % of control,,
"O=C(Cc1[nH]c(=S)n2c1C[C@H](c1c(F)ccc(F)c1F)C2)N[C@@H]1CCCOC1 [Example 365, N—((R)-tetrahydro-2H-pyran-3-yl)-2-((R)-3-thioxo-6-(2,3,6-trifluorophenyl)-2,5,6,7-tetrahydro-3H-pyrrolo[1,2-c]imidazol-1-yl)acetamide]",101.3 % of control,56.9 % of control,,
"O=C(Cc1[nH]c(=S)n2c1C[C@H](c1c(F)ccc(F)c1F)C2)N1CCOCC1 [Example 366, (R)-2-(6-(2,3,6-trifluorophenyl)-3-thioxo-2,5,6,7-tetrahydro-3H-pyrrolo[1,2-c]imidazol-1-yl)-1-morpholinoethan-1-one]",124.8 % of control,81.4 % of control,,
"Cn1c(CC(=O)NC2CCOCC2)c2n(c1=S)C[C@H](c1c(F)ccc(Cl)c1F)C2 [Example 367, (S)-2-(6-(3-chloro-2,6-difluorophenyl)-2-methyl-3-thioxo-2,5,6,7-tetrahydro-3H-pyrrolo[1,2-c]imidazol-1-yl)-N-(tetrahydro-2H-pyran-4-yl)acetamide]",45.4 % of control,4.3 % of control,,
"O=C(Cc1[nH]c(=S)n2c1C[C@H](c1c(F)ccc(F)c1F)C2)N[C@@H]1CCOC1 [Example 368, 2-((R)-6-(2,3,6-trifluorophenyl)-3-thioxo-2,5,6,7-tetrahydro-3H-pyrrolo[1,2-c]imidazol-1-yl)-N—((R)-tetrahydrofuran-3-yl)acetamide]",104.4 % of control,63.1 % of control,,
"O=C(Cc1[nH]c(=S)n2c1C[C@H](c1c(F)c(F)cc(F)c1F)C2)N[C@H]1CCOC1 [Example 369, 2-((R)-6-(2,3,5,6-tetrafluorophenyl)-3-thioxo-2,5,6,7-tetrahydro-3H-pyrrolo[1,2-c]imidazol-1-yl)-N—((S)-tetrahydrofuran-3-yl)acetamide]",86.0 % of control,60.1 % of control,,
"O=C(Cc1[nH]c(=S)n2c1C[C@H](c1c(F)ccc(F)c1F)C2)N[C@H]1CCOC1 [Example 370, 2-((R)-6-(2,3,6-trifluorophenyl)-3-thioxo-2,5,6,7-tetrahydro-3H-pyrrolo[1,2-c]imidazol-1-yl)-N—((S)-tetrahydrofuran-3-yl)acetamide]",88.5 % of control,64.7 % of control,,
"CN1CC(NC(=O)Cc2c3n(c(=S)n2C)C[C@@H](c2c(F)ccc(F)c2F)C3)CCC1=O (stereo partly drawn) [Example 371, 2-((R)-2-methyl-3-thioxo-6-(2,3,6-trifluorophenyl)-2,5,6,7-tetrahydro-3H-pyrrolo[1,2-c]imidazol-1-yl)-N-(1-methyl-6-oxopiperidin-3-yl)acetamide]",79.0 % of control,17.7 % of control,,
"CN(C(=O)Cc1c2n(c(=S)n1C)C[C@@H](c1c(F)ccc(F)c1F)C2)C1CCOCC1 [Example 372, (R)—N-methyl-2-(2-methyl-3-thioxo-6-(2,3,6-trifluorophenyl)-2,5,6,7-tetrahydro-3H-pyrrolo[1,2-c]imidazol-1-yl)-N-(tetrahydro-2H-pyran-4-yl)acetamide]",93.4 % of control,32.0 % of control,,
"CN(C(=O)Cc1c2n(c(=S)n1C)C[C@H](c1c(F)ccc(Cl)c1F)C2)C1CCOCC1 [Example 373, (S)-2-(6-(3-chloro-2,6-difluorophenyl)-2-methyl-3-thioxo-2,5,6,7-tetrahydro-3H-pyrrolo[1,2-c]imidazol-1-yl)-N-methyl-N-(tetrahydro-2H-pyran-4-yl)acetamide]",66.1 % of control,12.8 % of control,,
